Tests used:
[1] = Tmax in Sprague-Dawley rat at 2 mg/kg, iv; assay type: ADME, organism-based; conditions: in vivo
[2] = AUC (0 to infinity) in Sprague-Dawley rat at 2 mg/kg, iv; assay type: ADME, organism-based; parameters: dose 2 mg/kg, route iv; conditions: in vivo
[3] = Acute toxicity in Kunming mouse assessed as survival at 159 mg/kg, po measured for 2 weeks; assay type: organism-based; conditions: in vivo
HCT-116 [4] = experiment: Cell cycle arrest in human HCT-116 cells assessed as accumulation of cells at […] phase at 20 nM measured after 48 hrs by flow cytometry (reference value: 6.39%); assay type: functional
[5] = Toxicity in BALB/cA-nu mouse xenografted with human HCT116 cells assessed as body weight changes at 10 mg/kg, intragastric administration for 21 days; assay type: organism-based, HCT-116; conditions: in vivo, po, 504 h, time 21 day
[6] = Half life in Sprague-Dawley rat at 20 mg/kg, po; assay type: ADME, organism-based; conditions: in vivo
Cholinesterase = Cholinesterase (Equus caballus, UniProt P81908); experiment: Inhibition of equine serum BuChE using […] as substrate for 20 mins by Ellman's method
Sequence of Cholinesterase (P81908 whole entry): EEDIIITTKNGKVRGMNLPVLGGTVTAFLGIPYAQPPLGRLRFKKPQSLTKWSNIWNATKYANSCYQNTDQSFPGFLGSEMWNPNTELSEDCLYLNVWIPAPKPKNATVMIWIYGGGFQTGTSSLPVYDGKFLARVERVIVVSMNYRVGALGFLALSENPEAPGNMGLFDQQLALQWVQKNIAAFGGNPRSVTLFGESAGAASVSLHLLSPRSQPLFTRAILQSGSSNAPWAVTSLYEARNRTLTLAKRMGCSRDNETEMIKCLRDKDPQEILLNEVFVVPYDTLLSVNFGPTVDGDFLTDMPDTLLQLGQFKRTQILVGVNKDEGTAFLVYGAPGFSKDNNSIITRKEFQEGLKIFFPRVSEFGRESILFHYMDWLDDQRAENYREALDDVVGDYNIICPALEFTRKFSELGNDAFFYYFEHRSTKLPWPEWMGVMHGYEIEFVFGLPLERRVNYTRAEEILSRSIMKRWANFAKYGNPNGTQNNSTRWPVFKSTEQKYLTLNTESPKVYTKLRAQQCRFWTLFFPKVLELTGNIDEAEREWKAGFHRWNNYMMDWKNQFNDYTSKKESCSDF

[7] = Acute toxicity in Kunming mouse assessed as survival at 69 mg/kg, po measured for 2 weeks; assay type: organism-based; conditions: in vivo
[8] = AUC (0 to t) in Sprague-Dawley rat at 20 mg/kg, po; assay type: ADME, organism-based; parameters: dose 20 mg/kg, route po; conditions: in vivo
HCT-116 [9] = experiment: Induction of apoptosis in human HCT-116 cells assessed as viable cells at 20 nM measured after 48 hrs by Annexin V-FITC/PI assay (reference value: 88.5%); assay type: functional; conditions: read-out: Activity
HCT-116 [10] = experiment: Induction of apoptosis in human HCT-116 cells assessed as late apoptotic cells at 20 nM measured after 48 hrs by Annexin V-FITC/PI assay (reference value: 6.06%); assay type: functional
[11] = target: CDK18/Cyclin Y (Homo sapiens) (UniProt Q07002+Q8ND76); experiment: Inhibition of CDK18/Cyclin Y (unknown origin) at 500 nM by ADP-Glo kinase assay relative to control; assay type: protein-complex assay
[12] = Acute toxicity in Kunming mouse assessed as survival at 30 mg/kg, po measured for 2 weeks; assay type: organism-based; conditions: in vivo
HCT-116 [13] = experiment: Cell cycle arrest in human HCT-116 cells assessed as accumulation of cells at S phase at 10 nM measured after 48 hrs by flow cytometry (reference value: 31.43%); assay type: functional
[14] = target: Cyclin-dependent kinase 13/Cyclin-K (Homo sapiens) (UniProt Q14004+O75909); experiment: Inhibition of CDK13/Cyclin K (unknown origin) at 500 nM by ADP-Glo kinase assay relative to control; assay type: protein-complex assay
Sequence of Cyclin-dependent kinase 13/Cyclin-K (Homo sapiens) (O75909 whole entry, looked up): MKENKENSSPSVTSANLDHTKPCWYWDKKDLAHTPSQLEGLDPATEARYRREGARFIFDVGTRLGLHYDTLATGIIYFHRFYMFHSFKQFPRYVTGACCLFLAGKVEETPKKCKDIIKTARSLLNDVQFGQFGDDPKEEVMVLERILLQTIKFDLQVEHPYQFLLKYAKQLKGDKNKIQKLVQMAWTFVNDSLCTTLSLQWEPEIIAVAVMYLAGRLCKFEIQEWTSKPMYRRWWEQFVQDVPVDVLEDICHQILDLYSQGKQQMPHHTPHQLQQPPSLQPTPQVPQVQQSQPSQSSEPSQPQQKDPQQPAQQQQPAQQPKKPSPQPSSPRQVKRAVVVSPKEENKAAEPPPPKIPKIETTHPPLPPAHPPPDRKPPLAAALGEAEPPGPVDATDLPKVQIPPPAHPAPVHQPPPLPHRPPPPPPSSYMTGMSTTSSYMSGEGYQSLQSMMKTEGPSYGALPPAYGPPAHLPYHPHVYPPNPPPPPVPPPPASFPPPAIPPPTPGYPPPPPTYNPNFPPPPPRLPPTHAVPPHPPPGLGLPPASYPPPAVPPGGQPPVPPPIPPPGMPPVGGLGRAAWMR
Sequence of Cyclin-dependent kinase 13/Cyclin-K (Homo sapiens) (Q14004 whole entry, looked up): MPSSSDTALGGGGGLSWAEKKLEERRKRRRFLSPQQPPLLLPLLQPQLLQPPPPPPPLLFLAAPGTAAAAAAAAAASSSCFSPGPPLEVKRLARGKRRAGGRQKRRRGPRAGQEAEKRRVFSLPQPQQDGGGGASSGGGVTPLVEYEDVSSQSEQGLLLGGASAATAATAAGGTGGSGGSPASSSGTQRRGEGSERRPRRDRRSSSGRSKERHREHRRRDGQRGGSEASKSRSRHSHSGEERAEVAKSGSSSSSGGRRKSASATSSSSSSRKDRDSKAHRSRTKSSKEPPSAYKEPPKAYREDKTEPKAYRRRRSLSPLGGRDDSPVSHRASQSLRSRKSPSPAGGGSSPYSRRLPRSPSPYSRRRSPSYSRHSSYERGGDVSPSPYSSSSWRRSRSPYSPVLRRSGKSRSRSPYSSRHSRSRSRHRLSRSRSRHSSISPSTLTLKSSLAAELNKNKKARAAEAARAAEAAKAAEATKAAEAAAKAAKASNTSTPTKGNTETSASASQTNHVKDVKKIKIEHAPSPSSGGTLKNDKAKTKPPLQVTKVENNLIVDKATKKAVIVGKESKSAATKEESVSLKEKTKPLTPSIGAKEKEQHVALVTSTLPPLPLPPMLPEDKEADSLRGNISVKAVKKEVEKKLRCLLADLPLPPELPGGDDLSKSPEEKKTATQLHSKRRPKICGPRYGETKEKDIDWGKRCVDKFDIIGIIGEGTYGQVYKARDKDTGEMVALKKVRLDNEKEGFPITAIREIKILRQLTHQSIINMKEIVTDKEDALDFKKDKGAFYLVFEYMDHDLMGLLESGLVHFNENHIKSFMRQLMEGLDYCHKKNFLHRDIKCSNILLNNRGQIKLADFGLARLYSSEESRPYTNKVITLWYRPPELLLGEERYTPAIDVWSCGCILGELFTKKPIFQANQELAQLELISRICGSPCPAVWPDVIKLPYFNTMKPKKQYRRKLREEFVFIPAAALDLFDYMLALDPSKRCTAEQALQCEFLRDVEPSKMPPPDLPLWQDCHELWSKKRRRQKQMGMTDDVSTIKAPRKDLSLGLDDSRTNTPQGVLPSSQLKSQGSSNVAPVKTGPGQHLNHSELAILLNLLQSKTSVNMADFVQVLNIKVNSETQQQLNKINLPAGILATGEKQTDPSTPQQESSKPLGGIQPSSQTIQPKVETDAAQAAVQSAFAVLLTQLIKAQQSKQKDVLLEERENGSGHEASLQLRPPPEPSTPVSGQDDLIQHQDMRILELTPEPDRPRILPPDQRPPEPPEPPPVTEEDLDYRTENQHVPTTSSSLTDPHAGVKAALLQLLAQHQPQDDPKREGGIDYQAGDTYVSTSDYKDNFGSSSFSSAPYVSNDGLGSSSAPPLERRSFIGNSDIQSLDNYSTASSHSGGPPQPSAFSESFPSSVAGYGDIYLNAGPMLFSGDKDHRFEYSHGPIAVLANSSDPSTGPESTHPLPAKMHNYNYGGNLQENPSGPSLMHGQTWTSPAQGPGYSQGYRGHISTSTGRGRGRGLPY

HCT-116 [15] = experiment: Antiproliferative activity against human HCT-116 cells assessed as cell growth inhibition after 72 hrs by MTT assay; assay type: functional
[16] = target: CDK1/Cyclin E (Homo sapiens) (UniProt P06493+P24864); conditions: dose 500.0 nM
Sequence of CDK1/Cyclin E (Homo sapiens) (P06493 whole entry, looked up): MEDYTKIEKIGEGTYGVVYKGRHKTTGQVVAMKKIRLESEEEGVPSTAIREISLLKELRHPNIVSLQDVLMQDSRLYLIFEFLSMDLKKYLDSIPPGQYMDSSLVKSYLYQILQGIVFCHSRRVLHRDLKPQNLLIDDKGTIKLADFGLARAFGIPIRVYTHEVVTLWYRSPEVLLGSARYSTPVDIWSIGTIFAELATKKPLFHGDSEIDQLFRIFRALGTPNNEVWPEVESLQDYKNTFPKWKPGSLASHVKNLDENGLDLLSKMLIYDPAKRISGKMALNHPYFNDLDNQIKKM
Sequence of CDK1/Cyclin E (Homo sapiens) (P24864 whole entry, looked up): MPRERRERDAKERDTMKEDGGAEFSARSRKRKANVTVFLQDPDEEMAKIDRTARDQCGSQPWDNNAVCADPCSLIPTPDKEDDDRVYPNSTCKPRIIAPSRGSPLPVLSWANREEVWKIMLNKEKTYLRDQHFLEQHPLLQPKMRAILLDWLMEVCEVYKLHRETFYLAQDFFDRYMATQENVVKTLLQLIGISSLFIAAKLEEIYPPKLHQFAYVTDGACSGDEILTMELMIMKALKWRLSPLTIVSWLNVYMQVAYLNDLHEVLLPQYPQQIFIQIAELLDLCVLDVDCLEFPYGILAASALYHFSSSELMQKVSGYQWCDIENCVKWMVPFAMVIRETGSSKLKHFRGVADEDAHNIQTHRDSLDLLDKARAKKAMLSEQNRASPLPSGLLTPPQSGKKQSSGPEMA
Description: Inhibition of CDK1/Cyclin E1 (unknown origin) at 500 nM by ADP-Glo kinase assay relative to control

[17] = target: CDK6/cyclin D1 (Homo sapiens) (UniProt P24385+Q00534); experiment: Inhibition of CDK6/Cyclin D1 (unknown origin) at 500 nM by ADP-Glo kinase assay relative to control; assay type: protein-complex assay
[18] = Toxicity in BALB/cA-nu mouse xenografted with human HCT116 cells assessed as liver injury by measuring ALT level at 10 mg/kg, intragastric administration for 21 days; assay type: organism-based, HCT-116; conditions: in vivo, po, 504 h, time 21 day
A549 = experiment: Antiproliferative activity against human A549 cells assessed as cell growth inhibition after 72 hrs by MTT assay; assay type: functional
[19] = target: CDK6/cyclin D3 (Homo sapiens) (UniProt P30281+Q00534); experiment: Inhibition of CDK6/Cyclin D3 (unknown origin) at 500 nM by ADP-Glo kinase assay relative to control; assay type: protein-complex assay
HCT-116 [20] = experiment: Cell cycle arrest in human HCT-116 cells assessed as accumulation of cells at S phase at 20 nM measured after 48 hrs by flow cytometry (reference value: 31.43%); assay type: functional
[21] = target: Cyclin-Y/Cyclin-dependent kinase 16 (Homo sapiens) (UniProt Q00536+Q8ND76); experiment: Inhibition of CDK16/Cyclin Y (unknown origin) at 500 nM by ADP-Glo kinase assay relative to control; assay type: protein-complex assay
HCT-116 [22] = experiment: Cell cycle arrest in human HCT-116 cells assessed as accumulation of cells at G0-G1 phase at 20 nM measured after 48 hrs by flow cytometry (reference value: 62.18%); assay type: functional
HCT-116 [23] = experiment: Inhibition of cell migration in human HCT-116 cells after 48 hrs by Wound healing scratch assay; assay type: functional, cell-based; conditions: dose 2-18 nM
[24] = target: Cyclin-dependent kinase 4/cyclin D1 (Homo sapiens) (UniProt P11802+P24385); experiment: Inhibition of CDK4/Cyclin D1 (unknown origin) at 500 nM by ADP-Glo kinase assay relative to control; assay type: protein-complex assay
[25] = Acute toxicity in Kunming mouse assessed as survival at 105 mg/kg, po measured for 2 weeks; assay type: organism-based; conditions: in vivo
[26] = Toxicity in BALB/cA-nu mouse xenografted with human HCT116 cells assessed as behavioral changes at 10 mg/kg, intragastric administration for 21 days; assay type: organism-based, HCT-116; conditions: in vivo, po, 504 h, time 21 day
HCT-116 [27] = experiment: Cell cycle arrest in human HCT-116 cells assessed as accumulation of cells at […] phase at 10 nM measured after 48 hrs by flow cytometry (reference value: 6.39%); assay type: functional
[28] = AUC (0 to t) in Sprague-Dawley rat at 2 mg/kg, iv; assay type: ADME, organism-based; parameters: dose 2 mg/kg, route iv; conditions: in vivo
[29] = Volume of distribution at steady state in Sprague-Dawley rat at 2 mg/kg, iv; assay type: ADME, organism-based; conditions: in vivo, read-out: Vdss
HCT-116 [30] = experiment: Induction of apoptosis in human HCT-116 cells assessed as late apoptotic cells at 10 nM measured after 48 hrs by Annexin V-FITC/PI assay (reference value: 6.06%); assay type: functional
[31] = Cmax in Sprague-Dawley rat at 2 mg/kg, iv; assay type: ADME, organism-based; parameters: dose 2 mg/kg, route iv; conditions: in vivo
[32] = Acute toxicity in Kunming mouse assessed as body weight change at 20 to 105 mg/kg, po measured for 2 weeks; assay type: organism-based; conditions: in vivo, 336 h, dose 20-105 mg/kg
[33] = target: Cyclin-C/Cyclin-dependent kinase 19 (Homo sapiens) (UniProt Q9BWU1+P24863); experiment: Inhibition of CDK19/Cyclin C (unknown origin) at 500 nM by ADP-Glo kinase assay relative to control; assay type: protein-complex assay
HCT-116 [34] = experiment: Induction of apoptosis in human HCT-116 cells assessed as necrotic cells at 20 nM measured after 48 hrs by Annexin V-FITC/PI assay (reference value: 2.31%); assay type: functional
HCT-116 [35] = experiment: Induction of apoptosis in human HCT-116 cells assessed as necrotic cells at 10 nM measured after 48 hrs by Annexin V-FITC/PI assay (reference value: 2.31%); assay type: functional
[36] = target: CDK7/Cyclin H/MNAT1 (Homo sapiens) (UniProt P51946+P50613+P51948); experiment: Inhibition of CDK7/Cyclin H/MAT1 (unknown origin) at 500 nM by ADP-Glo kinase assay relative to control; assay type: protein-complex assay
[37] = Tmax in Sprague-Dawley rat at 20 mg/kg, po; assay type: ADME, organism-based; conditions: in vivo
HCT-116 [38] = experiment: Induction of apoptosis in human HCT-116 cells assessed as viable cells at 10 nM measured after 48 hrs by Annexin V-FITC/PI assay (reference value: 88.5%); assay type: functional; conditions: read-out: Activity

For `Cl.N[C@H]1CCN(c2c3c(nc4ccc(-c5ccnc(NC(=O)C6CC6)n5)cc24)CCCCC3)C1`, the Tmax [1] was 4.98 min, the AUC(0-inf) [2] was 0.115 µg·h/mL and the survival at 336 h [3] was 0%. The Activity (HCT-116 [4]) was 13.11%, the Activity [5] was “Non-Toxic” and the half-life [6] was 1.77 h. The IC50 (Cholinesterase) was 2770 nM, the survival at 336 h [7] was 100% and the AUC(0-t) [8] was 0.302 µg·h/mL. The viability at 0.02 µM (HCT-116 [9]) was 52.5%, the Activity (HCT-116 [10]) was 13.6% and the inhibition [11] was 68.1%. For the same molecule, the survival at 336 h [12] was 100%, the Activity (HCT-116 [13]) was 42.75% and the inhibition [14] was 80.9%. For the same molecule, the GI50 (HCT-116 [15]) was 6 nM, the inhibition [16] was 48.6% and the inhibition [17] was 22.1%. The Activity [18] was “Non-Toxic”, the GI50 (A549) was 9 nM and the inhibition [19] was 16.6%. The Activity (HCT-116 [20]) was 49.38%, the inhibition [21] was 76.1% and the Activity (HCT-116 [22]) was 37.51%. For the same molecule, the inhibition (HCT-116 [23]) was “Dose-Dependent Effect”, the inhibition [24] was 31.6% and the survival at 336 h [25] was 50%. For the same molecule, the Activity [26] was “Non-Toxic”, the Activity (HCT-116 [27]) was 10.6% and the AUC(0-t) [28] was 0.11 µg·h/mL. It also gave a Vd [29] of 12.6 L/kg, an Activity (HCT-116 [30]) of ~7.47% and a Cmax [31] of 0.206 µg/mL. For the same molecule, the Activity [32] was “Non-Toxic”, the inhibition [33] was 12.9% and the Activity (HCT-116 [34]) was 1.23%. It also gave an Activity (HCT-116 [35]) of 1.48%, an inhibition [36] of 60.4% and a Tmax [37] of 1 h. For the same molecule, the viability at 0.01 µM (HCT-116 [38]) was 74%.
